Experimental data taken from patent US9134245B2, “Cell-based antioxidant protection assay” (Natural Immune Systems, Inc., priority 2007, dated 2015).
≈ marks a conversion by molar mass, not a printed value.

Test system: red blood cells (RBC)
Experiment: CAP-e assay (RBC treated with test sample, washed, lysed; CM-H2DCFDA fluorescence after oxidative challenge)
Assay type: cell-based, human
Details: for inhibition of oxidative damage: hydroxyl free radical generator H2O2 compared with peroxyl free radical generator AAPH: dose response curves, FIG. 2 and FIG. 3
Experimental: Whole blood was collected from healthy volunteers. A double density gradient was prepared, where 3 ml of HISTOPAQUE® 1099 was overlaid with 3 ml of HISTOPAQUE® 1077. 5-6 ml of whole anticoagulated blood was layered on top of the double gradient and centrifuged for 25 minutes at 2400 rpm. The plasma, peripheral blood mononuclear cells, polymorphonuclear cells, and HISTOPAQUE® were removed using a transfer pipette. The remaining packed red blood cell fraction was washed three times in 10-14 ml PBS by centrifugation at 2400 rpm for 10 minutes. After the third wash the supernatant was removed, and the packed RBC were aliquoted for storage by pipetting 200 μl packed RBC into 10 ml PBS. The RBC aliquots were stored at 4-8° C. until use. The cells were used the same day or after up to 120 days of storage. For most routine testing, the RBC were typically prepared 2-4 weeks before use.
The antioxidant standard gallic acid (GA) was prepared by dissolving 85 mg of GA in 0.5 ml of 99.95% methanol. 0.2 ml of the dissolved GA was immediately diluted in 49.8 ml of PBS. Serial five-fold dilutions of the GA solution were prepared in PBS.
The serial dilutions of the extract and the GA standard were aliquoted in duplicate in a deep-well microplate. 100 μl of the RBC suspension was added to each well. The plate was incubated for 20 minutes at room temperature in the dark. Unabsorbed antioxidants were removed by washing the RBC three times in PBS by centrifugation for 2.5 minutes at 2400 rpm. The RBC pellets were lysed by incubation in 0.08 ml distilled water for 5 minutes at room temperature.
The fluorescent probe was prepared by reconstituting 50 μg CM-H2DCFDA in 0.2 ml anhydrous dimethyl sulfoxide, which was then added to 7.5 ml PS. After lysis of RBC was complete 70 μl of the lysed RBC were transferred to a black microplate and 50 μl of CM-H2DCFDA was added to each well (16.25 μM CM-H2DCFDA). The microplate was incubated for 20 minutes at room temperature or 37° C. in the dark. Then 50 μl H2O2 (0.0004% final concentration) or 50 μl AAPH (1 mg/ml final concentration) was added to each well. Wells exposed to H2O2 were incubated for 5 minutes at room temperature in the dark. Wells exposed to AAPH were incubated for one hour at room temperature or 37° C. in the dark. Fluorescence intensity was measured in a Tecan Spectrafluor fluorescence plate reader with excitation at 485 nm and emission at 535 nm.
Negative controls were RBC which were not treated with a test sample or standard and were not exposed to an oxidative challenge. Positive controls were RBC which were not treated with a test sample or standard, but were exposed to an oxidative challenge. The percent inhibition of oxidative damage was calculated as [(fluorescence intensity of RBC treated with free radical generator−fluorescence intensity of RBC treated with test sample and free radical generator)/(fluorescence intensity of RBC treated with free radical generator−fluorescence intensity of untreated RBC)]×100.
The CAP-e value of a given test product is based on the comparison of the dose-response of inhibition of oxidative damage between the standard gallic acid (GA) and the test sample. For each test sample or compound, the IC50 for inhibition of oxidative damage is calculated. […] The CAP-e units of GA was set as 1,000 Gallic Acid Equivalents (GAE). […] The CAP-e value was expressed as CAP-e units/g of sample.

| Structure (SMILES) | IC50 (Homo sapiens, Erythrocyte, determined from more than 60 independent experiments, read-out: IC50 for inhibition of oxidative damage) | amount needed for the same level of protection, RBC from older person versus younger person (RBC from a person over 85 years versus under 50 years of age, H2O2, FIG. 11) | inhibition of oxidative damage: hydroxyl free radical generator H2O2 compared with peroxyl free radical generator AAPH | protection of RBC from damage from both free radical generators (H2O2 and AAPH, at higher concentrations) |
| --- | --- | --- | --- | --- |
| O=C(O)c1cc(O)c(O)c(O)c1 [GA, gallic acid] | 32 µg/mL (≈ 188 µM) | More GA was required | equally effective | – |
| Cc1c(C)c2c(c(C)c1O)CCC(C)(C(=O)O)O2 (centres unmarked) [TROLOX®, 6-hydroxy-2,5,7,8-tetramethylchroman-2-carboxylic acid] | – | – | more effective against hydroxyl free radicals at lower concentrations | protected RBC from damage |
